14 compounds from US20210276987A1, “PHARMACEUTICAL AGENTS FOR USE IN SMOKING AND TOBACCO CESSATION” (Washington State University, priority 2018, published 2021) can be followed below.

Where a name gives a salt, the structure may show the parent alone. Read-outs that look alike come from different tables or passages of the source. A value given as a limit tells only on which side of the number the result lay.

Data set [1] deals with T1, UGT2B10 (Homo sapiens, UniProt P36537).
T1 sequence (P36537 24-528): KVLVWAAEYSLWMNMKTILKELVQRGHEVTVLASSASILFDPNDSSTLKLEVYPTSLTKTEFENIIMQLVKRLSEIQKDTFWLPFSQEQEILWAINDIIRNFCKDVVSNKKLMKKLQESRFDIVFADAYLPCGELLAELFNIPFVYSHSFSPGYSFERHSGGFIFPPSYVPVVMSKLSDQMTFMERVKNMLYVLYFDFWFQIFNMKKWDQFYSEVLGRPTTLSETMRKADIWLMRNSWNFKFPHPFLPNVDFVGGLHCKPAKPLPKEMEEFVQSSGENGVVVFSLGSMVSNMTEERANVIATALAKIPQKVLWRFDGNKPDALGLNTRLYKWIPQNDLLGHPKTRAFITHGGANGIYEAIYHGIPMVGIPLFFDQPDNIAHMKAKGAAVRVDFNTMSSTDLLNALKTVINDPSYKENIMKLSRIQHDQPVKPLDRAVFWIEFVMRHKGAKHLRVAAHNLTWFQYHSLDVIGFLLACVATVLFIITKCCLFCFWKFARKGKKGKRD
Briefly: biochemical. As for the experimental part:
Initial screening assays were performed as described above for the CYP assays using 1 μM or 10 μM of each of the NAs. The inhibitory effects of each agent against UGT2B10 was performed using the known UGT2B10-specific probe substrate, nicotine, in pooled human liver microsomes. […] Pre-incubations containing 500 μM nicotine and 1 or 10 μM NA were subsequently performed at 37° C. in 50 mM Tris-HCl buffer (pH 7.5, in a final volume of 50 μL) and 10 mM MgCl2 for 5 minutes.

For data set [2], the target named is T2, CYP2A6 (Homo sapiens, UniProt P11509).
T2 sequence (P11509 1-494): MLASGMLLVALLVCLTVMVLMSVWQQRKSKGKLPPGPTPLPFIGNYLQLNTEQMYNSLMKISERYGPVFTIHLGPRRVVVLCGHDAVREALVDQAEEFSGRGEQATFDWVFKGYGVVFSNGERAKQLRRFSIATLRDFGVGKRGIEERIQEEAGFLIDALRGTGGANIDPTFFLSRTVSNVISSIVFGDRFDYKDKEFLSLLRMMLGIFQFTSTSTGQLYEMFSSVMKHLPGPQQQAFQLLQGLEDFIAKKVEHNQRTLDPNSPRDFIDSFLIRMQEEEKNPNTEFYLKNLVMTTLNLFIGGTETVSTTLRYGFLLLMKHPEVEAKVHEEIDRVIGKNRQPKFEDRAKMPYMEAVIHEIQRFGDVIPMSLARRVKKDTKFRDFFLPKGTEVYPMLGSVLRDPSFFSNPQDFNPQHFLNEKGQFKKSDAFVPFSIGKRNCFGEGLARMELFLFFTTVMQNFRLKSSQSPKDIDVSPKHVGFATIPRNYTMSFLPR
Briefly: biochemical.

A short description of data set [3]: in vitro. Particulars: for half-life at 10 μM: human, microsomes; for T1/2 (min) in human liver microsomes / half-life (T1/2) in human liver microsomes: pH 7.4. Here is the method: In vitro stability studies. […] Half-lives were calculated using the one-phase exponential decay equation (GraphPad).
(Microsomes from liver hold many membrane-bound enzymes, among them those of drug oxidation.)

Data set [4] deals with T3, CYP2B6 (Homo sapiens, UniProt P20813).
T3 sequence (P20813 1-491): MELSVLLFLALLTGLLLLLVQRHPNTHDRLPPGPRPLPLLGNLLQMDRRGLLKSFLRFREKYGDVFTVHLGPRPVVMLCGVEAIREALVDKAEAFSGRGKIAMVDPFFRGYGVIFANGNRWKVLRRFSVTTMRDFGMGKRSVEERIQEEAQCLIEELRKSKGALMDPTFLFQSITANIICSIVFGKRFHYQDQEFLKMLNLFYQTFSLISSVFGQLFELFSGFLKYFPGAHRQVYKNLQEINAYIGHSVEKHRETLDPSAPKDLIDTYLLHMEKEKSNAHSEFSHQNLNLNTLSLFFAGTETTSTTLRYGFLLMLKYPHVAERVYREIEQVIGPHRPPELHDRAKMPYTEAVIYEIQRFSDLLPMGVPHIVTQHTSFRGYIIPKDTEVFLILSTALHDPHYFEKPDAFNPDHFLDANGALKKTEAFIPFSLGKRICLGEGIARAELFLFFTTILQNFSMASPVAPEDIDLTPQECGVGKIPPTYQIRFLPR
Particulars: Table 8, thiophene and furan analogues.

Data set [5] has as its target T4, CYP2C8 (Homo sapiens, UniProt P10632).
T4 sequence (P10632 1-490): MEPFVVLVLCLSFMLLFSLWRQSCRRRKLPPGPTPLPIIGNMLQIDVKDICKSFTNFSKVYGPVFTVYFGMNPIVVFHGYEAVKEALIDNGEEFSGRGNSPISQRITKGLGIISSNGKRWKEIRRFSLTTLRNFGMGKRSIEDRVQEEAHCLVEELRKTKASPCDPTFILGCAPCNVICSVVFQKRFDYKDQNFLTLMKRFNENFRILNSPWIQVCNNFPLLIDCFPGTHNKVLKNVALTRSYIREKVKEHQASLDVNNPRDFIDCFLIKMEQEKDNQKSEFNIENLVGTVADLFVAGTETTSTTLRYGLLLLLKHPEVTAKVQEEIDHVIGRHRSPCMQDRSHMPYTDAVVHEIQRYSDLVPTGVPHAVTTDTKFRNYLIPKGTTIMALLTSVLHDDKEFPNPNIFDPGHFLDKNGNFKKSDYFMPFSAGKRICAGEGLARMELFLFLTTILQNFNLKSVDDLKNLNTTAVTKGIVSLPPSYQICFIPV
The note with it: Table 8, thiophene and furan analogues.

The target of data set [6] is CYP2E1 (Homo sapiens, UniProt P05181). The note with it: Table 8, thiophene and furan analogues.
The target of data set [7] is CYP2C9 (Homo sapiens, UniProt P11712). Briefly: CYP2C9 inhibition assay, human liver microsomes, diclofenac probe (cocktail). The note with it: Table 8, thiophene and furan analogues.
Data set [8] concerns the target T5, CYP1A2 (Homo sapiens, UniProt P05177).
T5 sequence (P05177 1-516): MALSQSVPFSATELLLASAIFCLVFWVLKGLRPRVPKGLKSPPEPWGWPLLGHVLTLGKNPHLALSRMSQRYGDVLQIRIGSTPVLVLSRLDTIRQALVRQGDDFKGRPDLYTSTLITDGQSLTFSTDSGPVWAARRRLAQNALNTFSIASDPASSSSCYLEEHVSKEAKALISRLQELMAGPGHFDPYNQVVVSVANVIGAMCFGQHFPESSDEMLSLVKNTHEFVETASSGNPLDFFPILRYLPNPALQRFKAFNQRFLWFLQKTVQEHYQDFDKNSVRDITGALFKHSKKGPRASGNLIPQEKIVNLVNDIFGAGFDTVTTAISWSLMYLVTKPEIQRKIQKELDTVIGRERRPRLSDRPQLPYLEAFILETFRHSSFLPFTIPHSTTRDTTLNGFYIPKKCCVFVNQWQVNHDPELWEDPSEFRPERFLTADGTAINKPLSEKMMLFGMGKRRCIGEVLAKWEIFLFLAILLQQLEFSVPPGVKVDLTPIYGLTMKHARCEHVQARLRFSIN
Briefly: CYP1A2 inhibition assay, human liver microsomes, phenacetin probe (cocktail). Particulars: Table 8, thiophene and furan analogues.

Data set [9] has as its target CYP2C19 (Homo sapiens, UniProt P33261). Briefly: CYP2C19 inhibition assay, human liver microsomes, omeprazole probe (cocktail). Particulars: Table 8, thiophene and furan analogues.
The target in data set [10] is CYP2D6 (Homo sapiens, UniProt P10635). Briefly: CYP2D6 inhibition assay, human liver microsomes, dextromethorphan probe (cocktail). The note with it: Table 8, thiophene and furan analogues.
Data set [11] addresses T2, CYP2A6. Particulars: both, human, microsomes, pH 7.4.
For data set [12], the target named is T2, CYP2A6. Briefly: in vitro. Particulars: both, microsomes, pH 7.4, IC50 against CYP2A6 (μM).
[13] abbreviates: IC50 against UGT2B10 (μM), Table 9, pooled human liver microsomes, nicotine 500 μM.
Setting [14] is: IC50 against CYP2A6 (μM), Table 5, alkyne linker agents, pooled human liver microsomes, coumarin […].
Where [15] appears, read: pH 7.4, half-life (T1/2) in human liver microsomes.
The mark [16] stands for this setting: IC50 against CYP2A6, human liver microsomes.

Chain of CYP2D6 (P10635 whole entry): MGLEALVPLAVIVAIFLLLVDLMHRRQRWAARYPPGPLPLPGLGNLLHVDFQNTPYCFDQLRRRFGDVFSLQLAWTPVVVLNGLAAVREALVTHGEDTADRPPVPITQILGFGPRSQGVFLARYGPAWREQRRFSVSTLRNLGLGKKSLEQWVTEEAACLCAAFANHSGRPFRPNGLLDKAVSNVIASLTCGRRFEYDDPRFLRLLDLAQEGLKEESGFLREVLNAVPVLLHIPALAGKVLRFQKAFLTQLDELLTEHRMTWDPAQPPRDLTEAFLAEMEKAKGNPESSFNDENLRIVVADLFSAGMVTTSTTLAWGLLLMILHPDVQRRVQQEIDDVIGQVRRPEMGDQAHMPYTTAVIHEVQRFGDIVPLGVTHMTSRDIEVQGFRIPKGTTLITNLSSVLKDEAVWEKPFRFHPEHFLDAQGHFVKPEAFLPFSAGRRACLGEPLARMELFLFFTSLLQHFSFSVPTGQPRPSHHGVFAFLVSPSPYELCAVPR
Chain of CYP2C19 (P33261 whole entry): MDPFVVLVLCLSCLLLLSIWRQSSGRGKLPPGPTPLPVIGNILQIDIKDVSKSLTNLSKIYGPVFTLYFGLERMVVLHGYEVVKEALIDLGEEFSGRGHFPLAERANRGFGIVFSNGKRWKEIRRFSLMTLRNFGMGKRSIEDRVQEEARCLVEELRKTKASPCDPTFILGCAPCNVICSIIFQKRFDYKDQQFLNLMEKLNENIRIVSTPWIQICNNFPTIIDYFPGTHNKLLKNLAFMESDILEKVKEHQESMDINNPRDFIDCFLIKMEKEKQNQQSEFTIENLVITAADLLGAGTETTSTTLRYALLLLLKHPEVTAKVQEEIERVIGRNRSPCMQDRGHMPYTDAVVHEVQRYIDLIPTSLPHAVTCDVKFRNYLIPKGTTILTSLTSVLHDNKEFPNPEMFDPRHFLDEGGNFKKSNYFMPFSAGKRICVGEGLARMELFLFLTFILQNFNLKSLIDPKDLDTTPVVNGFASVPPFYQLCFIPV
Chain of CYP2E1 (P05181 whole entry): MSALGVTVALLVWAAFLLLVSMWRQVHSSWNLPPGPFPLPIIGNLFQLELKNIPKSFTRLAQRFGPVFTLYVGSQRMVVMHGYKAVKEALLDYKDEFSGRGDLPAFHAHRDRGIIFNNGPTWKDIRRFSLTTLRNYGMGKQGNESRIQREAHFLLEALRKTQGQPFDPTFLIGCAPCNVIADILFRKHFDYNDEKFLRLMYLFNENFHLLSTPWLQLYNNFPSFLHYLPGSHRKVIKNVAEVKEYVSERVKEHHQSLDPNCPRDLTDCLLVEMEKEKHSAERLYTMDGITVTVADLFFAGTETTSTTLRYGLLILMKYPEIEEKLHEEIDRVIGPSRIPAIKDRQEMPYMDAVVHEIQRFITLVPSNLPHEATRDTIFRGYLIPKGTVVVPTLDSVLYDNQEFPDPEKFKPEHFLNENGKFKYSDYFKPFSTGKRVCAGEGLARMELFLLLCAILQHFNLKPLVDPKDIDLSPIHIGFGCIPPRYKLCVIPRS
Chain of CYP2C9 (P11712 whole entry): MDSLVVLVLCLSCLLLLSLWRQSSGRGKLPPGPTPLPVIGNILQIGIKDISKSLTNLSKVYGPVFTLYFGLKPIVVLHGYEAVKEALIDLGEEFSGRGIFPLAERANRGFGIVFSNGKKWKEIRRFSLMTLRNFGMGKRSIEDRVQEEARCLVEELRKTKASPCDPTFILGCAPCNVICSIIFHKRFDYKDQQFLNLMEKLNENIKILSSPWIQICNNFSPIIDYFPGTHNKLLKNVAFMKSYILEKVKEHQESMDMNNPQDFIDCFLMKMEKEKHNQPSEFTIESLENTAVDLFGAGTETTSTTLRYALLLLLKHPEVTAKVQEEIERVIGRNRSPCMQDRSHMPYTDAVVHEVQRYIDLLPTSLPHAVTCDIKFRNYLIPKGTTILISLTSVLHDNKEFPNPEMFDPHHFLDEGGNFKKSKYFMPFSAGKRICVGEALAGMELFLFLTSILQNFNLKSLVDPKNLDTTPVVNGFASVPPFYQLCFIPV

As for `NCC#Cc1cncc2ccccc12` [Compound A, 3-(isoquinolin-4-yl)prop-2-yn-1-amine Dihydrochloride], the figures for the IC50 in data set [1] (setting [13]) and in data set [2] (setting [14]) were 770 µM and above 10 µM, respectively.
`NCc1ccc(-c2cnccc2Cl)s1` [Compound AB, (5-(4-chloropyridin-3-yl)thiophene-2-yl)methanamine Dihydrochloride]: the half-life (commonly the time in which the quantity being followed falls by half) at 10 μM was 0.183 h in data set [3] (pH 7.4, T1/2 (min) in human liver microsomes) and below 0.417 h in data set [3] (setting [15]). For the same compound, the “IC50 ratio CYP2B6/CYP2A6” value in [4] turned out to be 7.4. Moreover, the “IC50 ratio CYP2C8/CYP2A6” value in data set [5] is on record as 227. Further, the “IC50 ratio CYP2E1/CYP2A6” value in [6] is recorded as 47. Also, inhibition in data set [2] (IC50 against CYP2A6 (μM), Table 7, thiophene and furan nicotine analogues, pooled human liver microsomes, coumarin) was half-maximal at 0.11 µM (IC50). Further, the “IC50 ratio CYP2C9/CYP2A6” value in [7] is given as 182. In addition, the “IC50 ratio CYP1A2/CYP2A6” value in data set [8] was 17. In addition, the “IC50 ratio CYP2C19/CYP2A6” value in data set [9] came out at 6.8. Besides, in data set [10], the “IC50 ratio CYP2D6/CYP2A6” value was 71.
`NCc1ccc(-c2cnccc2-c2cccnc2)o1` [Compound AG, (5-([3,4′-Bipyridin]-3′-yl)furan-2-yl)methanamine Trihydrochloride]: the “T1/2 (min) in human liver microsomes” value in data set [3] (10 μM) is on record as above 120 min. The compound further had a half-life at 10 μM in data set [3] (setting [15]) above 1.5 h. In addition, in data set [11], the IC50 (as a rule, the midpoint of a concentration-inhibition curve) is 0.38 µM.
`NCc1ccc(-c2cnccc2-c2ccncc2)s1` [Compound AJ, (5-([4,4′-Bipyridin]-3′-yl)thiophene-2-yl)methanamine Trihydrochloride]: in [3] (10 μM), the “T1/2 (min) in human liver microsomes” value was determined as 32 min. The same compound came in with an IC50 in [11] of 0.33 µM.
In the case of `NCc1ccc(-c2cnccc2-c2cncnc2)o1` [Compound AK, (5-(4-(Pyrimidin-5-yl)pyridin-3-yl)furan-2-yl)methanamine Trihydrochloride], the “T1/2 (min) in human liver microsomes” value in data set [3] (10 μM) is reported as above 120 min. The compound also showed a half-life at 10 μM in data set [3] (setting [15]) above 1.5 h. The compound also showed an IC50 in data set [11] of 1.3 µM.
For `NCc1ccc(-c2cnccc2-c2cncnc2)s1` [Compound AL, (5-(4-(Pyrimidin-5-yl)pyridin-3-yl)thiophene-2-yl)methanamine Trihydrochloride], in that order: above 120 min, above 1.5 h and 1.2 µM.
On to `NCC#Cc1cnc2ccccc2c1` [Compound B, 3-(quinolin-3-yl)prop-2-yn-1-amine], for which the IC50 was above 1000 µM in [1] (setting [13]); above 1000 µM in data set [1] (IC50 against UGT2B10, little to no inhibition); above 10 µM in data set [2] (setting [14]).
Take `Cc1ccncc1C#CCN` [Compound C, 3-(4-methylpyridin-3-yl)prop-2-yn-1-amine]: the IC50 was below 60 µM in [1] (IC50 against UGT2B10), 58 µM in [1] (IC50 against UGT2B10 (μM)), 0.055 µM in data set [11] and below 1 µM in data set [2] (IC50 against CYP2A6). In addition, in data set [3], the “T1/2 (min) in human liver microsomes” value was found to be 8.4 min. Further, the “half-life (T1/2) in human liver microsomes” value in [3] is “less than 25 minutes”.
On to `Cc1cncc(C#CCN)c1` [Compound D, 3-(5-methylpyridin-3-yl)prop-2-yn-1-amine], for which the IC50 is above 1000 µM in data set [1] (IC50 against UGT2B10), above 1000 µM in [1] (IC50 against UGT2B10 (μM)) and 10 µM in [12].
For `Cc1ncccc1C#CCN` [Compound F, 3-(2-methylpyridin-3-yl)prop-2-yn-1-amine], the IC50 in data set [1] (setting [13]) is 286 µM; in data set [2] (setting [14]), above 10 µM.
`CCc1ccncc1C#CCN` [Compound H, 3-(4-ethylpyridin-3-yl)prop-2-yn-1-amine]: the IC50 in data set [1] (IC50 against UGT2B10) was above 1000 µM; in data set [1] (IC50 against UGT2B10 (μM)), above 1000 µM; in [11], 0.83 µM; in data set [2] (IC50 against CYP2A6), below 1 µM. Moreover, in data set [3], the “T1/2 (min) in human liver microsomes” value is listed as 9.8 min. The “half-life (T1/2) in human liver microsomes” value in [3] is recorded as “less than 25 minutes”.
As to `NCC#Cc1cnccc1-c1ccco1` [Compound M, 3-(4-Furan-2-yl-pyridin-3-yl)-prop-2-ynylamine Dihydrochloride], the IC50 in [11] is 0.56 µM; in [2] (setting [16]) it was below 1 µM.
Regarding `NCC#Cc1cnccc1-c1ccncc1` [Compound P, 3-([4,4′-Bipyridin]-3′-yl)prop-2-yn-1-amine Trihydrochloride], in data set [3] (10 μM), the “T1/2 (min) in human liver microsomes” value stood at 36 min. The results for the IC50 in data set [11] and in [2] (setting [16]) were 3.6 µM and below 10 µM, respectively.
Consider `NCC#Cc1cnccc1-c1cncnc1` [Compound Q, 3-(4-(Pyrimidin-5-yl)pyridin-3-yl)prop-2-yn-1-amine Trihydrochloride], for which the “T1/2 (min) in human liver microsomes” value in data set [3] (10 μM) was above 120 min. Further, the half-life at 10 μM in [3] (setting [15]) was above 1.5 h. Moreover, the values for the IC50 in [11] and in [2] (setting [16]) were 2.7 µM and below 10 µM, respectively.
